# Reference: patent publication US20110172171A1, “TAURINE OR TAURINE-LIKE SUBSTANCES FOR THE PREVENTION OF BRAIN OEDEMA” (priority 2008, published 2011)
# Several values for one entry are separate records, joined by “and”; a condition that tells them apart may be missing. Identical values can stand only once. Entries after “also recorded” stand apart in the source; their conditions may differ.
# Test system: white matter adjacent to the cerebellar nuclei, and the nuclei
# Assay: Vigabatrin-induced brain vacuolation in rats, histology of cerebellar sections scored by light microscopy
# Type: in vivo, Wistar rats
# Parameters: key to vacuolation score (grade) of cerebellum: 1: No or occasional individual vacuoles in perinuclear white matter.; 2: Mild to moderate regional vacuolation of perinuclear white matter, sometimes extending into nucleus.; 3: Extensive, widespread vacuolation of perinuclear white matter, often with involvement of adjacent nuclear regions. Vacuolation may extend to folial white matter
# Details: for vacuolation score (grade) of cerebellum: blinded scoring; for vacuolation in the brain tissue (histological appearance): cerebellar sections
# Experimental: Animal treatments: As described previously (Duboc A. et al. 2004; Izumi Y. et al. 2004), Wistar rats Rj Wi IOPS Han were purchased from Janvier (Le Genest-St-Isle, France) at between six and seven weeks of age. vigabatrin dissolved in 0.9% NaC1 was administered at 40mg (125 mg/ml, 0.32m1) to rats by daily intraperitoneal injection for 65 days. These daily doses (rats: 200mg/kg) are in-line with those described for the treatment of epilepsy (adult patients: […]; children: 50-75mg/kg; or infants: 100-150 mg/kg) (Chiron C. et al. 1997; Lux AL. et al. 2004; Aicardi J. et al. 1996). Taurine supplementation was given in drinking water at a concentration of 0.1M.
# Histology: Rats were anesthetized by intraperitoneal injection (0.8 to 1.2 ml/kg) of a solution containing ketamine (40 mg/ml) and xylazine (4 mg/ml Rompum). Rat heads were removed and an opening created in the calvarium. These were then immersion fixed in 4% buffered formol (T/02170015, MMFrance) and then placed in phosphate buffered saline. Brains were then removed from the skulls and placed in 10% neutral buffered formalin. Brains were trimmed and their cerebellar nuclei placed in 10% buffered formalin and embedded in paraffin. Sections of the cerebellar nuclei were stained with hematoxylin and eosin.
# Vacuolation of cerebellum was assessed by light microscopy, with the region of emphasis being the white matter adjacent to the cerebellar nuclei, and the nuclei. Vacuolation was scored as follows.
# 1- No or occasional individual vacuoles in perinuclear white matter.
# 2- Mild to moderate regional vacuolation of perinuclear white matter, sometimes extending into nucleus.
# 3- Extensive, widespread vacuolation of perinuclear white matter, often with involvement of adjacent nuclear regions. Vacuolation may extend to folial white matter
compound,measurement,setting,value
"C=CC(N)CCC(=O)O (stereo not shown) [vigabatrin, 4-amino-5-hexenoic acid, reference compound]",vacuolation score (grade) of cerebellum,"rats, vigabatrin 40 mg (200mg/kg) daily intraperitoneal injection for 65 days, n=7",3
same,vacuolation in the brain tissue (histological appearance),"vigabatrin-treated rats, FIG. 1B",extensive; also recorded: a great number of vacuoles
"NCCS(=O)(=O)O [taurine, 2-aminoethanesulfonic acid]",vacuolation score (grade) of cerebellum,"vigabatrin-treated rats (200mg/kg daily i.p., 65 days) with taurine 0.1M in drinking water, n=7 (grade 1 n=3, grade 2 n=4), 200 mg/kg",1 and 2
same,vacuolation in the brain tissue (histological appearance),"vigabatrin-treated rats supplemented with taurine (0.1M in drinking water), FIG. 1C",mild and vacuoles were present in some animals but appeared at a much lower density
